In patent US20220296521A1, “CARRIER-BASED FORMULATIONS AND RELATED METHODS” (Respira Therapeutics, Inc., priority 2019, published 2022) one finds Tapped density data, which are given here for two compounds.

A short description of this series: Tapped density of bulk powder. Format: physicochemical. As for the experimental part: “Tapped densities” or ρtapped as used herein were measured in a fashion similar to Method I, as described in USP <616> Bulk Density and Tapped Density of Powders. Tapped densities represent a closer approximation to particle density than poured bulk densities, with measured values that are approximately 20% less than the actual particle density.
Tapped density was determined using a cylindrical cavity of known volume (0.593 cm^3). Powder was filled into this sample holder using a microspatula. The sample cell was then gently tapped on a countertop. As the sample volume decreased, more powder was added to the cell. The tapping and addition of powder steps were repeated until the cavity was filled and the powder bed no longer consolidated with further tapping. The tapped density is defined as the mass of this tapped bed of powder divided by the volume of the cavity.

Molecules are shown by their SMILES.

`CC(C)C(=O)OCC(=O)[C@@]12O[C@H](C3CCCCC3)O[C@@H]1C[C@H]1[C@@H]3CCC4=CC(=O)C=C[C@]4(C)[C@H]3[C@@H](O)C[C@@]12C` [Cic-A, ciclesonide] displayed a Tapped density of 0.17 g/mL. In turn, `CC(C)C(=O)OCC(=O)[C@@]12O[C@H](C3CCCCC3)O[C@@H]1C[C@H]1[C@@H]3CCC4=CC(=O)C=C[C@]4(C)[C@H]3[C@@H](O)C[C@@]12C` [Cic-B, ciclesonide] came in with a Tapped density of 0.16 g/mL.
